The values that follow come from patent US8906925B2, “Pyrido[4,3-B]indoles containing rigid moieties” (Medivation Technologies, Inc., priority 2008, dated 2014).

Read-outs that look alike come from different tables or passages of the source.

Usually inhibition stands for the drop in the measured response relative to a control, in per cent.

Assay [1] has as its target T1, human recombinant histamine H2 receptor (Homo sapiens, UniProt P25021).
T1 construct: expressed in transfected cells; host or cells: Chinese hamster ovary (CHO) K1 cells
Description: Histamine H2 radioligand binding ([125I]Aminopotentidine). The gist of the method:
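CHO-K1 cells expressing human recombinant H2 receptor, 50 mM phosphate buffer pH 7.4; compounds incubated with 0.1 nM [125I]aminopotentidine for 120 min at 25 °C. Nonspecific binding defined with 3 μM tiotidine; specifically bound radioligand counted after filtration and washing.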

In assay [2] the target is T2, human recombinant adrenergic α2A receptor (Homo sapiens, UniProt P08913).
T2 construct: expressed in transfected cells; host or cells: insect Sf9 cells
T2 sequence (P08913 1-465): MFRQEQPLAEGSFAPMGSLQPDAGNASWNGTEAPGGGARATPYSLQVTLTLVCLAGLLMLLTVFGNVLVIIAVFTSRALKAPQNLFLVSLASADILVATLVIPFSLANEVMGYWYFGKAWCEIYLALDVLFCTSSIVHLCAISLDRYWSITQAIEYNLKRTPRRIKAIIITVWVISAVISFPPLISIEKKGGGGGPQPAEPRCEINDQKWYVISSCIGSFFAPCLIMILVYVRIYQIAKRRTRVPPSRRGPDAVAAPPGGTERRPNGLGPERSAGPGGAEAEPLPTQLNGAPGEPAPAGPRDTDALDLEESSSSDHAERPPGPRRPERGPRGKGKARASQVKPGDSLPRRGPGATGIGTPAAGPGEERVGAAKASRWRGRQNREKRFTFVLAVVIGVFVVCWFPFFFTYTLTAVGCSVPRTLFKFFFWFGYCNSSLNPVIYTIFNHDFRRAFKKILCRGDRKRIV
Put plainly: Adrenergic α2A radioligand binding ([3H]MK-912). The method, then: To evaluate in radioligand binding assays the activity of compounds of the invention, human recombinant adrenergic α2A receptor expressed in insect Sf9 cells (Uhlen S et al. J Pharmacol Exp Ther. 271:1558, 1994) in a modified Tris-HCl buffer (50 mM Tris-HCl, pH 7.4, 12.5 mM MgCl2, 2 mM EDTA) was used. Compounds of invention were incubated with 1 nM [^3H]MK-912 for 60 min. at 25° C. MK912 is (2S-trans)-1,3,4,5′,6,6′,7,12b-octahydro-1′,3′-dimethyl-spiro[2H-benzofuro[2,3-a]quinolizine-2,4′(1′H)-pyrimidin]-2′(3′H)-one hydrochloride Non-specific binding was estimated in the presence of 10 μM WB-4101 (2-(2,6-Dimethoxyphenoxyethyl)aminomethyl-1,4-benzodioxane hydrochloride). Receptor proteins were filtered and washed, the filters were then counted to determine [^3H]MK-912 specifically bound. Compounds were screened at 1 μM or lower, using 1% DMSO as vehicle. Biochemical assay results are presented as the percent inhibition of specific binding in Table 9.

The target in assay [3] is T3, human recombinant adrenergic α2B receptor (Homo sapiens, UniProt P18089).
T3 construct: expressed in transfected cells; host or cells: Chinese hamster ovary (CHO-K1) cells
T3 sequence (P18089 1-450): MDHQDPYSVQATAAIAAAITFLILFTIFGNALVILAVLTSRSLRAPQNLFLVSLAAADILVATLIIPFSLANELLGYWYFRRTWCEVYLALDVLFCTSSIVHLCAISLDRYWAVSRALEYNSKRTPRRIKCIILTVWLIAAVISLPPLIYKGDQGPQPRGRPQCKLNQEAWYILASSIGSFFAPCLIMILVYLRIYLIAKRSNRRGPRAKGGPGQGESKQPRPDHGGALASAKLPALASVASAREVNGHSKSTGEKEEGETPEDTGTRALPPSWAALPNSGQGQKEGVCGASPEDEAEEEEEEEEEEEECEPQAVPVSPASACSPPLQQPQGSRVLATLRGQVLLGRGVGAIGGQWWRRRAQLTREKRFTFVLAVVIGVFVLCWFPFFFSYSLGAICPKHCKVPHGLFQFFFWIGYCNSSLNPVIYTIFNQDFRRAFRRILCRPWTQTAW
Description: Adrenergic α2B radioligand binding ([3H]Rauwolscine). The method, then:
To evaluate in radioligand binding assays the activity of compounds of the invention, human recombinant adrenergic α2B receptor expressed in Chinese hamster ovary (CHO-K1) cells (Uhlen S et al. Eur J Pharmacol. 343(1):93, 1998) in a modified Tris-HCl buffer (50 mM Tris-HCl, pH 7.4, 12.5 mM MgCl2, 1 mM EDTA, 0.2% BSA) was used. Compounds of the invention were incubated with 2.5 nM [^3H]Rauwolscine for 60 min. at 25° C. Non-specific binding was estimated in the presence of 10 μM Prozosin. Receptor proteins were filtered and washed, the filters were then counted to determine [^3H]Rauwolscine specifically bound. Compounds were screened at 1 μM or lower, using 1% DMSO as vehicle. Biochemical assay results are presented as the percent inhibition of specific binding in Table 9.

The target of assay [4] is T4, human recombinant serotonin (5-Hydroxytryptamine) 5-HT6 receptor (Homo sapiens, UniProt P50406).
T4 construct: expressed in transfected cells; host or cells: human HeLa cells
T4 sequence (P50406 whole entry): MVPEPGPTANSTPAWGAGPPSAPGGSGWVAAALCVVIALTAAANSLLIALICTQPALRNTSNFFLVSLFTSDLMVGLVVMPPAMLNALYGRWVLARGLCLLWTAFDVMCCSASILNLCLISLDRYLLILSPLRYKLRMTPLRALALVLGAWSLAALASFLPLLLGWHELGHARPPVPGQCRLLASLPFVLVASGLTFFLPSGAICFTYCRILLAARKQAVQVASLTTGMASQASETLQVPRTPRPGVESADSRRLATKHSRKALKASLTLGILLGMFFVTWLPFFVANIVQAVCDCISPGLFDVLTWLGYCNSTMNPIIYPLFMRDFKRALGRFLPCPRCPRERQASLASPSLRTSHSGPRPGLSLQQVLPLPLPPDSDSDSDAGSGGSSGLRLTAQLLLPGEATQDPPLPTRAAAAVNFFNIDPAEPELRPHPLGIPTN
Put plainly: Serotonin 5-HT6 radioligand binding ([3H]LSD). The settings on record: compound at 1 μM; read-out: Inhibition of ligand binding, Serotonin 5-HT6 (percent inhibition of specific binding). The method, then:
Compounds of the invention were incubated with 1.5 nM [3H]Lysergic acid diethylamide (LSD) for 120 min. at 37° C. […] Receptor proteins were filtered and washed, the filters were then counted to determine [3H]LSD specifically bound. Compounds were screened at 1 μM or lower, using 1% DMSO as vehicle. Biochemical assay results are presented as the percent inhibition of specific binding in Table 10.

Setting [5] is: read-out: Histamine Binding (1 μM) H2, percent inhibition of specific binding, 1 μM.
Setting [6] is: percent inhibition of specific binding, compound at 1 μM, read-out: Inhibition of ligand binding, Adrenergic α2A.
[7] abbreviates: percent inhibition of specific binding, compound at 1 μM, read-out: Inhibition of ligand binding, Adrenergic α2B.

T1 sequence (P25021 whole entry): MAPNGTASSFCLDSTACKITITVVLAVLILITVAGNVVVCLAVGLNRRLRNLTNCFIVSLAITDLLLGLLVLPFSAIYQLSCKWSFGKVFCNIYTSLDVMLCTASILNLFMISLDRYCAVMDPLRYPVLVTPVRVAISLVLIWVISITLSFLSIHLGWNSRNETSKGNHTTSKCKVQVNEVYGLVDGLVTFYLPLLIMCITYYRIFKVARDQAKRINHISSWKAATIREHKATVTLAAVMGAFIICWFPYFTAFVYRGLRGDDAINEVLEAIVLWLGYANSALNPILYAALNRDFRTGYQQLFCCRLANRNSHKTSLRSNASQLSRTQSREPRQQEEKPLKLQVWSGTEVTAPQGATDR

Consider `Cc1ccc(C(C)(O)Cn2c3c(c4cc(Cl)ccc42)CN(C)CC3)cn1` (stereo not drawn) [Compound 47, 1-(8-chloro-1,2,3,4-tetrahydro-2-methylpyrido[4,3-b]indol-5-yl)-2-(6-methylpyridin-3-yl)propan-2-ol], for which the inhibition at 1 µM in assay [1] (setting [5]) was 48%; in assay [2] (setting [6]) it was 81%; in assay [3] (setting [7]), 106%; in assay [4], 39%.

As for `Cc1ccc(/C=C/Cn2c3c(c4cc(Cl)ccc42)CN(C)CC3)cn1` [Compound 125, 8-chloro-2,3,4,5-tetrahydro-2-methyl-5-((E)-3-(6-methylpyridin-3-yl)allyl)-1H-pyrido[4,3-b]indole], the inhibition at 1 µM in assay [1] (setting [5]) is 48%; in assay [2] (setting [6]) it was 76%; in assay [3] (setting [7]), 110%; in assay [4], 62%.

Consider `C/C(=C\n1c2c(c3cc(Cl)ccc31)CN(C)CC2)c1ccc(C)nc1` [Compound 89, (E)-8-chloro-2,3,4,5-tetrahydro-2-methyl-5-(2-(6-methylpyridin-3-yl)prop-1-enyl)-1H-pyrido[4,3-b]indole], for which the inhibition at 1 µM in assay [1] (setting [5]) amounted to 91%; in assay [2] (setting [6]), 97%; in assay [3] (setting [7]), 108%; in assay [4] it was 67%.

For `Cc1ccc2[nH]c3c(c2c1)CN(C)CC3` [Compound 3, 2,8-Dimethyl-2,3,4,5-tetrahydro-1H-pyrido[4,3-b]indole], the inhibition at 1 µM is 6% in assay [1] (read-out: Histamine Binding (1 μM) H2, percent inhibition of specific binding); 58% in assay [2] (read-out: Inhibition of ligand binding, Adrenergic α2A); 91% in assay [3] (read-out: Inhibition of ligand binding, Adrenergic α2B); 58% in assay [4].

Take `Cc1ccc2c(c1)c1c(n2CC(C)(O)c2ccncc2)CCN(C)C1` (stereo not drawn) [Compound 62, 1-(1,2,3,4-tetrahydro-2,8-dimethylpyrido[4,3-b]indol-5-yl)-2-(pyridin-4-yl)propan-2-ol]: the inhibition at 1 µM in assay [1] (setting [5]) is 43%; in assay [2] (setting [6]) it was 57%; in assay [3] (setting [7]), 103%; in assay [4], 43%.

Consider `C=C(Cn1c2c(c3cc(Cl)ccc31)CN(C)CC2)c1ccc(OC)c(F)c1` [Compound 140, 8-chloro-5-(2-(3-fluoro-4-methoxyphenyl)allyl)-2,3,4,5-tetrahydro-2-methyl-1H-pyrido[4,3-b]indole], for which the inhibition at 1 µM in assay [1] (setting [5]) came to 99%; in assay [2] (setting [6]), 86%; in assay [3] (setting [7]) it was 106%; in assay [4] it was 75%.

Consider `CN1CCc2c(c3cc(Cl)ccc3n2C#Cc2ccc(F)cc2)C1` [Compound No. 475, 8-chloro-5-((4-fluorophenyl)ethynyl)-2-methyl-2,3,4,5-tetrahydro-1H-pyrido[4,3-b]indole], for which the inhibition at 1 µM was 91% in assay [1] (setting [5]); 93% in assay [2] (compound at 1 μM, read-out: Inhibition of ligand binding, Adrenergic α2A (percent inhibition of specific binding)); 106% in assay [3] (compound at 1 μM, […] [3H]Rauwolscine, read-out: Inhibition of ligand binding, Adrenergic α2B (percent inhibition of specific binding)); 99% in assay [4].

Consider `CN1CCc2c(c3cc(Cl)ccc3n2CC(O)c2cccnc2)C1` (stereo not drawn) [Compound 56, 2-(8-chloro-1,2,3,4-tetrahydro-2-methylpyrido[4,3-b]indol-5-yl)-1-(pyridin-3-yl)ethanol], for which the inhibition at 1 µM in assay [1] (setting [5]) turned out to be 26%; in assay [2] (setting [6]) it was 65%; in assay [3] (setting [7]) it was 112%; in assay [4] it was 62%.

As to `CN1CCc2c(c3cc(Cl)ccc3n2C/C=C/c2ccncc2)C1` [Compound 127, 8-chloro-2,3,4,5-tetrahydro-2-methyl-5-((E)-3-(pyridin-4-yl)allyl)-1H-pyrido[4,3-b]indole], the inhibition at 1 µM in assay [1] (setting [5]) worked out at 22%; in assay [2] (setting [6]), 60%; in assay [3] (setting [7]) it was 68%; in assay [4] it was 41%.

With `Cc1ccc2c(c1)c1c(n2CC(C)(O)c2cccnc2)CCN(C)C1` (stereo not drawn) [Compound 60, 1-(1,2,3,4-tetrahydro-2,8-dimethylpyrido[4,3-b]indol-5-yl)-2-(pyridin-3-yl)propan-2-ol], the inhibition at 1 µM in assay [1] (setting [5]) amounted to 40%; in assay [2] (setting [6]), 81%; in assay [3] (setting [7]), 96%; in assay [4], 50%.

As for `C=C(Cn1c2c(c3cc(Cl)ccc31)CN(C)CC2)c1ccc(C)nc1` [Compound 136, 8-chloro-2,3,4,5-tetrahydro-2-methyl-5-(2-(6-methylpyridin-3-yl)allyl)-1H-pyrido[4,3-b]indole], the inhibition at 1 µM was 85% in assay [1] (setting [5]), 95% in assay [2] (setting [6]), 90% in assay [3] (setting [7]) and 73% in assay [4].

Regarding `COc1ccc(C(C)(O)Cn2c3c(c4cc(Cl)ccc42)CN(C)CC3)cc1` (stereo not drawn) [Compound 57, 1-(8-chloro-1,2,3,4-tetrahydro-2-methylpyrido[4,3-b]indol-5-yl)-2-(4-methoxyphenyl)propan-2-ol], the inhibition at 1 µM amounted to 82% in assay [1] (setting [5]), 70% in assay [2] (setting [6]), 108% in assay [3] (setting [7]) and 68% in assay [4].

For the molecule `C=C(Cn1c2c(c3cc(Cl)ccc31)CN(C)CC2)c1cccnc1` [Compound 133, 8-chloro-2,3,4,5-tetrahydro-2-methyl-5-(2-(pyridin-3-yl)allyl)-1H-pyrido[4,3-b]indole], the inhibition at 1 µM in assay [1] (setting [5]) stood at 60%; in assay [2] (setting [6]) it was 89%; in assay [3] (setting [7]), 103%; in assay [4], 80%.

As for `Cc1ccc2c(c1)c1c(n2CC(O)c2cccnc2)CCN(C)C1` (stereo not drawn) [Compound 54, 2-(1,2,3,4-tetrahydro-2,8-dimethylpyrido[4,3-b]indol-5-yl)-1-(pyridin-3-yl)ethanol], the inhibition at 1 µM in assay [1] (setting [5]) came out at 5%; in assay [2] (setting [6]) it was 39%; in assay [3] (setting [7]), 103%; in assay [4] it was 31%.

Regarding `Cc1ccc2c(c1)c1c(n2CC(O)c2ccc(C)nc2)CCN(C)C1` (stereo not drawn) [Compound 48, 2-(2,8-dimethyl-3,4-dihydro-1H-pyrido[4,3-b]indol-5(2H)-yl)-1-(6-methylpyridin-3-yl)ethanol], the inhibition at 1 µM in assay [1] (setting [5]) amounted to 47%; in assay [2] (setting [6]) it was 83%; in assay [3] (setting [7]) it was 100%; in assay [4], 59%.
